39 molecules from patent US6437138B1, “3-pyridyloxymethyl heterocyclic ether compounds useful in controlling chemical synaptic transmission” (priority 1996, dated 2002) can be followed below.

Molecules are shown by their SMILES. Where a name gives a salt, the structure may show the parent alone.

The molecule `C=CCc1cncc(OC[C@@H]2CCCN2C)c1.Cl.Cl` [Example 177, 5-Allyl-3-(1-methyl-2-(S)-pyrrolidinylmethoxy)pyridine Dihydrochloride] showed a melting point of 65 to 67 °C.
In the case of `CC(=O)c1cc(OC[C@@H]2CCCN2)cnc1Cl.Cl.Cl` [Example 32, 5-Acetyl-6-chloro-3-(2-(S)-pyrrolidinylmethoxy)pyridine Dihydrochloride] it was 173 to 176 °C.
The molecule `CN1CCC[C@H]1COc1cncc(-c2ccc3ccccc3c2)c1` (as salt: hydrochloride) [Example 31, 5-(2-Naphthalenyl-3-(1-methyl-2-(S)-pyrrolidinylmethoxy)pyridine Dihydrochloride] registered a melting point of 248 to 251 °C.
Then `CN1CC[C@H]1COc1cncc(C=CC=CC(C)(C)C)c1` (as salt: hydrochloride) [Example 166, 5-(5,5-Dimethyl-1,3-hexadiene)-3-(1-methyl-2-(S)-azetidinylmethoxy)pyridine Dihydrochloride], with 143 to 145 °C; and `C=Cc1cc(OC[C@@H]2CCCN2C)cnc1Cl.Cl` [Example 192, 6-Chloro-5-ethenyl-3-(1-methyl-2-(S)-pyrrolidinylmethoxy)pyridine Hydrochloride], with 182 to 184 °C.
In turn, `CN1CCC[C@H]1COc1cncc(CCc2ccncc2)c1` (as salt: hydrochloride) [Example 29, 5-(2-(4-Pyridinnyl)ethyl)-3-(1-methyl-2-(S)-pyrrolidinnylmethoxy)pyridine Trihydrochloride] had a melting point of 148 to 150 °C.
Then `Cl.Clc1ncc(OC[C@@H]2CCCN2)cc1-c1cncnc1` [Example 169, 6-Chloro-5-(5-pyrimidinyl)-3-(2-(S)-pyrrolidinylmethoxy)pyridine Hydrochloride], with 230 °C (dec.).
Then `CCCCCCCCC#Cc1cncc(OC[C@@H]2CCCN2C)c1.Cl.Cl` [Example 9, 5-(1-Decynyl)-3-(1-methyl-2-(S)-pyrrolidinylmethoxy)pyridine Dihydrochloride], with 102 to 105 °C; and `CN1CCC[C@H]1COc1cncc(-c2ccco2)c1` (as salt: hydrochloride) [Example 5, 5-(2-Furanyl-3-(1-methyl-2-(S)-pyrrolidinylmethoxy)pyridine Dihydrochloride], with 189 to 191 °C; and `Cl.Cl.Clc1ccc(-c2cncc(OC[C@H]3CCCN3)c2)cc1` [Example 139, 5-(4-Chlorophenyl)-3-(2-(R)-pyrrolidinylmethoxy)pyridine Dihydrochloride], with 183 to 185 °C.
Then `CN1CCC[C@H]1COc1cnc(Cl)c(-c2ccc(Cl)cc2)c1.Cl.Cl` [Example 151, 6-Chloro-5-(4-chlorophenyl)-3-(1-methyl-2-(S)-pyrrolidinylmethoxy)pyridine Dihydrochloride], with 183 to 185 °C; and `Clc1ncc(OC[C@@H]2CCN2)cc1-c1ccccc1` (as salt: salt) [Example 67, 5-Phenyl-6-chloro-3-(2-(S)-azetidinylmethoxy)pyridine Hidrochloride], with 148 to 150 °C; and `C=Cc1ncc(OC[C@@H]2CCCN2C)cc1C.Cl` [Example 188, 6-Ethenyl-5-methyl-3-(1-methyl-2-(S)-pyrrolidinylmethoxy)pyridine Hydrochloride], with 50 °C (dec.).
On to `CC(C)(C)C=CC=Cc1cncc(OC[C@@H]2CCCN2)c1.Cl.Cl` [Example 160, 5-(5,5-Dimethyl-1,3-hexadienyl)3-(2-(S)-pyrrolidinylmethoxy)pyridine Dihydrochloride], for which the melting point was 92 to 94 °C.
Then `CN1CCC[C@H]1COc1cncc(C#CCCCC#N)c1` (as salt: hydrochloride) [Example 14, (5-(5-Cyano-1-pentynyl-3-(1-methyl-2-(S)-pyrrolidinylmethoxy)pyridine Dihydrochloride], with 165 to 167 °C; and `C=Cc1cc(OC[C@H]2CCCN2)cnc1Cl.Cl` [Example 167, 6-Chloro-5-ethenyl-3-(2-(R)-pyrrolidinylmethoxy)pyridine Hydrochloride], with 182 to 184 °C.
The molecule `CN1CC[C@H]1COc1cncc(OCc2ccccc2)c1.Cl` [Example 200, 5-Benzyloxy-3-(1-methyl-2-(S)-azetidinylmethoxy)pyridine Hydrochloride] had a melting point of 132 to 134 °C.
In the case of `CN1CCC[C@H]1COc1cncc(-c2cnc3ccccc3c2)c1` (as salt: hydrochloride) [Example 35, 5-(3-Ouinolinyl)-3-(1-methyl-2-(S)-pyrrolidinylmethoxy)pyridine Trihydrochloride] it was 184 to 186 °C; in that of `CN1CCC[C@H]1COc1cncc(-c2cccs2)c1` (as salt: hydrochloride) [Example 6, 5-(2-Thienyyl)-3-(1-methyl-2-(S)-pyrrolidinylmethoxy)pyridine Dihydrochloride], 201 to 203 °C.
In the case of `CC(C)(C)C=CC=Cc1cc(OC[C@H]2CCCN2)cnc1Cl.Cl.Cl` [Example 77, 5-(5,5-Dimethyl-1,3-hexadienyl)-6-chloro-3-(2-(R)-pyrrolidinylmethoxy)pyridine Dihydrochloride] it was 190 to 192 °C.
The molecule `CN1CCC[C@H]1COc1cncc(-c2ccc(F)c(Cl)c2)c1` (as salt: hydrochloride) [Example 42, 5-(3-Chloro-4-fluorolphenyl)-3-(1-methyl-2-(S)-pyrrolidinylmethoxy)pyridine Dihydrochloride] came in with a melting point of 202 to 204 °C.
The molecule `CN1CCC[C@@H]1COc1cncc(-c2ccc(Cl)cc2)c1.Cl.Cl` [Example 141, 5-(4-Chlorophenyl)-3-(1-methyl-2-(R)-pyrrolidinylmethoxy)pyridine Dihydrochloride] had a melting point of 223 to 225 °C.
Then `COCCOc1cncc(OC[C@@H]2CCCN2)c1.Cl.Cl` [Example 197, 5-Methoxyethoxy-3-(2-(S)-pyrrolidinylmethoxy)pyridine Dihydrochloride], with 182 to 184 °C.
In the case of `Cl.Cl.c1ncc(-c2cncc(OC[C@@H]3CCN3)c2)cn1` [Example 171, 3-(2-(S)-Azetidinylmethoxy)-5-(5-pyrimidinyl)pyridine Dihydrochloride] it was 185 °C (dec.); in that of `CN1CCC[C@H]1COc1cnc(Cl)c(C=Cc2ccncc2)c1` (as salt: hydrochloride) [Example 50, 5-(2-(4-Pyridinyl)ethenyl)-6-chloro-3-(1-methyl-(2-(S)-pyrrolidinylmethoxy)pyridine Dihydrochloride], 218 to 222 °C; in that of `Cl.Clc1ncc(OC[C@H]2CCN2)cc1-c1ccccc1` [Example 186, 3-(2-(R)-Azetidinylmethoxy)-6-chloro-5-phenylpyridine Hydrochloride], 143 to 145 °C.
In the case of `Clc1ncc(OC[C@@H]2CCN2)cc1C=Cc1ccncc1` (as salt: citric acid salt) [Example 89, 5-(2-(4-Pyridinyl)ethenyl)-6-chloro-3-(2-(S)-azetidnylmethoxy)pyridine Citric Acid Salt] it was 195 to 197 °C; in that of `CN1CC[C@@H]1COc1cnc(Cl)c(-c2ccccc2)c1.Cl` [Example 189, 6-Chloro-3-(1-methyl-2-(R)-azetidinylmethoxy)-5-phenylpyridine Hydrochloride], 173 to 175 °C.
In turn, `C=Cc1cncc(OC[C@@H]2CCN2)c1.Cl.Cl` [Example 162, 3-(2-(S)-Azetidinylmethoxy)-5-ethenylpyridine Dihydrochloride] registered a melting point of 88 to 90 °C.
Then `Cl.Cl.Clc1ccc(-c2cncc(OC[C@@H]3CCCN3)c2)cc1` [Example 20, 5-(4-chlorophenyl)-3-(2-(S)-pyrrolidinylmethoxy)pyridine Dihydrochloride], with 180 to 182 °C.
Then `Cl.Cl.Cl.Nc1cccc(-c2cncc(OC[C@H]3CCCN3)c2)c1` [Example 88, 5-(3-Aminophenyl)-3-(2-(R)-pyrrolidinylmethoxy)pyridine Trihydrochloride], with 240 to 242 °C; and `C=Cc1cc(OC[C@@H]2CCN2C)cnc1F` (hydrate or solvate) [Example 204, 5-Ethenyl-6-fluoro-3-(1-methyl-2-(S)-azetidinylmethoxy)pyridine], with 156 to 158 °C; and `C#Cc1cc(OC[C@H]2CCN2)cnc1Cl.Cl` [Example 190, 3-(2-(R)-Azetidinylmethoxy)-6-chloro-5-ethynylpyridine Hydrochloride], with 155 to 157 °C.
Then `CCCCCCC#Cc1cc(OC[C@@H]2CCCN2C)cnc1Cl.Cl.Cl` [Example 146, 6-Chloro-3-(1-methyl-2-(S)-pyrrolidinylmethoxy)-5-(1-octynyl)pyridine Dihydrochloride], with 223 to 225 °C; and `COC(=O)c1cncc(OC[C@@H]2CCCN2C)c1` (as salt: hydrochloride) [Example 27, 5-Methoxycarbonol-3-(1-methyl-2-(S)-pyrrolidinylmethoxy)pyridine Dihydrochloride], with 165 to 167 °C; and `CN1CCC[C@@H]1COc1cnc(Cl)c(C=CC=CC(C)(C)C)c1.Cl.Cl` [Example 78, 5-(5,5-Dimethyl-1,3-hexadienyl)-6-chloro-3-(1-methyl-2-(R)-pyrrolidinylmethoxy)pyridine Dihydrochloride], with 194 °C (dec.).
For the molecule `CN1CCC[C@@H]1COc1cnc(Cl)c(C=Cc2ccncc2)c1` (as salt: hydrochloride) [Example 82, 5-(2-(4-Pyridinnyl)ethenyl)-6-chloro-3-(1-methyl-2-(R)-pyrrolidinylmethoxy)pyridine Dihydrochloride], the melting point was 220 to 222 °C (dec.).
In the case of `C=Cc1cc(OC[C@@H]2CCN2C)cnc1C` (as salt: salt) [Example 196, 5-Ethenyl-6-methyl-3-(1-methyl-2-(S)-azetidinylmethoxy)pyridine] it was 140 to 143 °C; in that of `C=CCc1cc(OC[C@@H]2CCN2)cnc1Cl.Cl` [Example 178, 5-Allyl-3-(2-(S)-azetidinylmethoxy)-6-chloropyridine Hydrochloride], 90 to 92 °C.

By melting point is commonly meant the temperature of the solid-liquid transition.
